The first experiment deals with PIKFYVE (Homo sapiens, UniProt Q9Y2I7). The experiment is described as follows: KINOMEscan Kinase Assay (PIKFYVE inhibitory activity). The note with it: read-out: PIKfyve Activity (% inhibition).
Chain of PIKFYVE (Q9Y2I7 whole entry): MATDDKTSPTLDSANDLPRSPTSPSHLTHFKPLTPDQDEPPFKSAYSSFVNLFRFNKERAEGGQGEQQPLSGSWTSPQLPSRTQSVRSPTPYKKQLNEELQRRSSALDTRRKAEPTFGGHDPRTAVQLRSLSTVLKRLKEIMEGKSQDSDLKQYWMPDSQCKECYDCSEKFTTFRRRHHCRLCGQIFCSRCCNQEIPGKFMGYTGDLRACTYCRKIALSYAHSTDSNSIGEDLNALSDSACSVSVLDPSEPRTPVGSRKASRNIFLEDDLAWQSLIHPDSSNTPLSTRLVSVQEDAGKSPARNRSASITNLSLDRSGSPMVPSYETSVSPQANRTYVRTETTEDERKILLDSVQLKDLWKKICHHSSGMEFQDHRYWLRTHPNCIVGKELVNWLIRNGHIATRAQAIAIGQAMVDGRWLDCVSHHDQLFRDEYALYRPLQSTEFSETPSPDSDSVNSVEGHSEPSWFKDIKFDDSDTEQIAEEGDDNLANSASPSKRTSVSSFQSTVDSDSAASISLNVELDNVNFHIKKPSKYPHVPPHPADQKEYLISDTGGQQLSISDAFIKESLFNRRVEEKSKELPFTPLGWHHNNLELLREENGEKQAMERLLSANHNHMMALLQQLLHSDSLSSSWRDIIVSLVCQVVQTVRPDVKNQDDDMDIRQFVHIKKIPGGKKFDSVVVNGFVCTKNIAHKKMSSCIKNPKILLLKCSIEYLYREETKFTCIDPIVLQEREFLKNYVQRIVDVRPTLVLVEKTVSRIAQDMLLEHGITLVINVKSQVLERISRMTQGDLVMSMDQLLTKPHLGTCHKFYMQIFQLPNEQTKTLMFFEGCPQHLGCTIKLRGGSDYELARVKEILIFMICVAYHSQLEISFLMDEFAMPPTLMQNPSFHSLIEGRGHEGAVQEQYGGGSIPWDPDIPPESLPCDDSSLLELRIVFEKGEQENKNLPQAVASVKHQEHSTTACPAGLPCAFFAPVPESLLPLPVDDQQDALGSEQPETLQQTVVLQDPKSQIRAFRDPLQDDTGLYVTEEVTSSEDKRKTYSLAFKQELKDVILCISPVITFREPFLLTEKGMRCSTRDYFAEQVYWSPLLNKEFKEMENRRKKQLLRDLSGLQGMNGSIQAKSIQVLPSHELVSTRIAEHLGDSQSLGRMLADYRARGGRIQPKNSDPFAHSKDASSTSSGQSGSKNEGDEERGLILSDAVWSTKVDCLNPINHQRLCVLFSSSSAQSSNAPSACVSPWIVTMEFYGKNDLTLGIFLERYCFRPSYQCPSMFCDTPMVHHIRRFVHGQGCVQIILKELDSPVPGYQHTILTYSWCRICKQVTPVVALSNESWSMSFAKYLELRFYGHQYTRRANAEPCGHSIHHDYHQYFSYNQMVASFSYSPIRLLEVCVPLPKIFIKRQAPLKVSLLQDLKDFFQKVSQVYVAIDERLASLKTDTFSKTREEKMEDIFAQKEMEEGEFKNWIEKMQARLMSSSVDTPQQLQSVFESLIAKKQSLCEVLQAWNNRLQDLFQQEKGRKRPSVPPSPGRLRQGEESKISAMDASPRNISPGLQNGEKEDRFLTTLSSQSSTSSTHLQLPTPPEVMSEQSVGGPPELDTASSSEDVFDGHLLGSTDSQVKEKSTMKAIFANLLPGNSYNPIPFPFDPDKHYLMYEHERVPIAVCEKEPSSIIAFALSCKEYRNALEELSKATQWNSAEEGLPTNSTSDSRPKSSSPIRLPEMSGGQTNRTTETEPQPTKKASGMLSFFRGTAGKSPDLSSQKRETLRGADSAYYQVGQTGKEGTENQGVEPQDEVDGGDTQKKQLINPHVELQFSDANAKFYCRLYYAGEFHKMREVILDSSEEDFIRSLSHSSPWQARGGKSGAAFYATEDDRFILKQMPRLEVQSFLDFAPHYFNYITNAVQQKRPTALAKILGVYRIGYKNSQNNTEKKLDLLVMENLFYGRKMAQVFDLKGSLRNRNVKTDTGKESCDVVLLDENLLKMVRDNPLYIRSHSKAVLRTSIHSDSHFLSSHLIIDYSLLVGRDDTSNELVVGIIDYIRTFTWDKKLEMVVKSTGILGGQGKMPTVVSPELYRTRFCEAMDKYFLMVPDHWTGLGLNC
In the case of `Cc1cccc(-c2ccn(-c3nc(N4CCOCC4)c4sc(C#CCN(C)C)cc4n3)n2)c1` [Ex. 207, N,N-Dimethyl-3-(4-morpholino-2-(3-(m-tolyl)-1H-pyrazol-1-yl)thieno[3,2-d]pyrimidin-6-yl)prop-2-yn-1-amine], the inhibition (in general, the change of the read-out against control, counted positive when it falls) at 0.001 µM was 35%. On to `Cc1cccc(-c2ccn(-c3cc(N4CCOCC4)c4sc(NC(=O)C5COC5)cc4n3)n2)c1` [Ex. 232], for which the inhibition at 0.001 µM turned out to be 24%. In the case of `Cc1cccc(-c2nc(-c3nc(N4CCOCC4)c4sc(CN5CCN(S(C)(=O)=O)CC5)cc4n3)co2)c1` [Ex. 241], the inhibition at 0.003 µM was found to be 0%.

Take `Cc1cccc(-c2nc(-c3cc(N4CCOCC4)c4sc(CN5CCN(S(C)(=O)=O)CC5)cc4n3)co2)c1` [Ex. 242]: the inhibition at 0.003 µM is 8%. In the case of `Cc1cccc(-c2nc(-c3cc(N4CCOCC4)c4sc(CN5CCN(S(C)(=O)=O)CC5)cc4n3)cs2)c1` [Ex. 244], the inhibition at 0.001 µM is 37%. Regarding `Cc1cccc(-c2ccn(-c3cc(N4CCOCC4)c4sc(NC(=O)C5CCCN(C)C5)cc4n3)n2)c1` (stereo not drawn) [Ex. 272], the inhibition at 0.001 µM came to 44%. As to `Cc1cccc(-c2ccn(-c3nc(N4CCOCC4)c4nc(C(=O)NC5COC5)[nH]c4n3)n2)c1` [Ex. 275], the inhibition at 0.001 µM worked out at 40%.

On to `Cc1cccc(-c2ccn(-c3cc(N4CCOCC4)c4nc(CN5CCN(S(=O)(=O)C6CC6)CC5)[nH]c4n3)n2)c1` [Ex. 280], for which the inhibition at 0.001 µM came to 46%.

As to `Cc1cccc(-c2ccn(-c3nc(N4CCOCC4)c4nc(CN5CCN(S(C)(=N)=O)CC5)[nH]c4n3)n2)c1` (stereo not drawn) [Ex. 282], the inhibition at 0.001 µM worked out at 41%. On the same count and under the same terms, for `Cc1cccc(-c2ccn(-c3nc4[nH]c(C(=O)N5CCN(S(C)(=O)=O)CC5)nc4c(N4CCOCC4)c3F)n2)c1` [Ex. 292] the value was 13%.

Staying with this experiment, now noted: read-out: PIKfyve Activity (PIKfyve % inhibition).
For the compound `Cc1cccc(-c2ccn(-c3nc(N4CCOCC4)c4sc(N(C)C5CCN(C)CC5)nc4n3)n2)c1` [Ex. 208, N-Methyl-N-(1-methylpiperidin-4-yl)-7-morpholino-5-(3-(m-tolyl)-1H-pyrazol-1-yl)thiazolo[4,5-d]pyrimidin-2-amine], the inhibition at 0.001 µM lay within 52 to 100%. As for `Cc1cccc(-c2ccn(-c3nc(N4CCOCC4)c4sc(NCCS(C)(=O)=O)nc4n3)n2)c1` [Ex. 209, N-(2-(Methylsulfonyl)ethyl)-7-morpholino-5-(3-(m-tolyl)-1H-pyrazol-1-yl)thiazolo[4,5-d]pyrimidin-2-amine], the inhibition at 0.001 µM was in the range of 52 to 100%. The same measure, in the same setting: as for `Cc1cccc(-c2ccn(-c3cc(N4CCOCC4)c4sc(C(=O)N5CCN(C)CC5)cc4n3)n2)c1` [Ex. 217, (4-Methylpiperazin-1-yl) (7-morpholino-5-(3-(m-tolyl)-1H-pyrazol-1-yl)thieno[3,2-b]pyridin-2-yl)methanone], the figure is 52 to 100%. For the compound `Cc1cccc(-c2ccn(-c3cc(N4CCOCC4)c4sc(NC(=O)C5CCN(C)CC5)cc4n3)n2)c1` [Ex. 235], the inhibition at 0.001 µM is 52 to 100%. On the same count and under the same terms, as for `Cc1cccc(-c2ccn(-c3cc(N4CCOCC4)c4sc(C(=O)N5CCC(N6CCC6)C(F)C5)cc4n3)n2)c1` (stereo not drawn) [Ex. 236], the figure is 52 to 100%; as for `Cc1cccc(-c2ccn(-c3cc(N4CCOCC4)c4sc(C(=O)N5CCC(N6CC(F)C6)CC5)cc4n3)n2)c1` [Ex. 237], 52 to 100%; as for `Cc1cccc(-c2ccn(-c3cc(N4CCOCC4)c4sc(C(=O)N5CCC(N6CC(F)C6)C5)cc4n3)n2)c1` (stereo not drawn) [Ex. 238], 52 to 100%.

As for `Cc1cccc(-c2ccn(-c3cc(N4CCOCC4)c4sc(C(=O)N5CC(F)C(N6CCC6)C5)cc4n3)n2)c1` (stereo not drawn) [Ex. 239], the inhibition at 0.001 µM lay within 52 to 100%. As to `Cc1cccc(-c2ccn(-c3cc(N4CCOCC4)c4sc(C(=O)N5CCN(S(C)(=O)=O)CC5)cc4n3)n2)c1` [Ex. 240], the inhibition at 0.001 µM lay in the range of 52 to 100%. `Cc1cccc(-c2nc(-c3nc(N4CCOCC4)c4sc(CN5CCN(S(C)(=O)=O)CC5)cc4n3)cs2)c1` [Ex. 243]: the inhibition at 0.001 µM lay in the range of 52 to 100%. As to `CNC(=O)c1cc2nc(-n3ccc(-c4cccc(C)c4)n3)cc(N3CCOCC3)c2s1` [Ex. 247], the inhibition at 0.001 µM lay in the range of 52 to 100%. The same measure, in the same setting: for `Cc1cccc(-c2ccn(-c3cc(N4CCOCC4)c4sc(C(=O)NC5(C)COC5)cc4n3)n2)c1` [Ex. 252] the value was 52 to 100%; for `Cc1cccc(-c2ccn(-c3cc(N4CCOCC4)c4sc(C(=O)NCCN(C)C)cc4n3)n2)c1` [Ex. 255], 52 to 100%. For the compound `Cc1cccc(-c2ccn(-c3cc(N4CCOCC4)c4sc(NC(=O)C5CCN(C)C5)cc4n3)n2)c1` (stereo not drawn) [Ex. 271], the inhibition at 0.001 µM was in the range of 52 to 100%. On the same count and under the same terms, as for `Cc1cccc(-c2ccn(-c3nc(N4CCOCC4)c4nc(C(=O)NC5CC5)[nH]c4n3)n2)c1` [Ex. 274], the figure is 52 to 100%. On to `Cc1cccc(-c2ccn(-c3cc(N4CCOCC4)c4sc(NC(=O)C5CNC5)cc4n3)n2)c1` [Ex. 278], for which the inhibition at 0.001 µM was in the range of 52 to 100%. Consider `Cc1cccc(-c2ccn(-c3cc(N4CCOCC4)c4nc(CN5CCN(S(=O)(=O)C(C)C)CC5)[nH]c4n3)n2)c1` [Ex. 279], for which the inhibition at 0.001 µM is 52 to 100%. On to `Cc1cccc(-c2ccn(-c3cc(N4CCOCC4)c4nc(CN5CC6CC5CN6S(C)(=O)=O)[nH]c4n3)n2)c1` (stereo not drawn) [Ex. 281], for which the inhibition at 0.001 µM was 52 to 100%. Consider `Cc1cccc(-c2ccn(-c3cc(N4CCOCC4)c4sc(CN5CCN(S(C)(=N)=O)CC5)cc4n3)n2)c1` (stereo not drawn) [Ex. 284], for which the inhibition at 0.001 µM was 52 to 100%. For the compound `Cc1cccc(-c2ccn(-c3cc(N4CCOCC4)c4nc(CN5C6CC5CN(S(C)(=O)=O)C6)[nH]c4n3)n2)c1` [Ex. 285], the inhibition at 0.001 µM lay within 52 to 100%. On to `Cc1cccc(-c2ccn(-c3nc(N4CCOCC4)c4sc(C(=O)N5CCN(S(C)(=O)=O)CC5)cc4n3)n2)c1` [Ex. 286], for which the inhibition at 0.001 µM fell in the range of 52 to 100%. Take `Cc1cccc(-c2ccn(-c3nc(N4CCOCC4)c4nc(C(=O)N5CCN(S(C)(=O)=O)CC5)n(C)c4n3)n2)c1` [Ex. 287]: the inhibition at 0.001 µM fell in the range of 52 to 100%.

For `Cc1cccc(-c2ccn(-c3cc(N4CCOCC4)c4sc(C(=O)N5CCN(S(C)(=O)=O)CC5)c(C)c4n3)n2)c1` [Ex. 291], the inhibition at 0.001 µM was in the range of 52 to 100%. For `Cc1cccc(-c2ccn(-c3cc(N4CCOCC4)c4sc(C(N)=O)cc4n3)n2)c1` [Ex. 293], the inhibition at 0.001 µM was 52 to 100%. In the case of `CC(=O)N1CCN(Cc2cc3nc(-n4ccc(-c5cccc(C)c5)n4)cc(N4CCOCC4)c3s2)CC1` [Ex. 295], the inhibition at 0.001 µM fell in the range of 52 to 100%. On the same count and under the same terms, as for `CC(=O)NC1CCN(Cc2cc3nc(-n4ccc(-c5cccc(C)c5)n4)cc(N4CCOCC4)c3s2)CC1` [Ex. 296], the figure is 52 to 100%; as for `Cc1cccc(-c2ccn(-c3cc(N4CCOCC4)c4sc(CN5CCC(C(N)=O)CC5)cc4n3)n2)c1` [Ex. 297], 52 to 100%. As to `Cc1cccc(-c2ccn(-c3cc(N4CCOCC4)c4nc(C(=O)NC5COC5)[nH]c4n3)n2)c1` [Ex. 298], the inhibition at 0.001 µM lay within 52 to 100%. On to `Cc1cccc(-c2ccn(-c3cc(N4CCOCC4)c4sc(C(=O)Nc5ccccn5)cc4n3)n2)c1` [Ex. 299], for which the inhibition at 0.001 µM is 52 to 100%. Take `CC(=O)N1CCN(Cc2nc3c(N4CCOCC4)cc(-n4ccc(-c5cccc(C)c5)n4)nc3[nH]2)CC1` [Ex. 301]: the inhibition at 0.001 µM lay in the range of 52 to 100%. On the same count and under the same terms, for `CC(=O)NC1CCN(Cc2nc3c(N4CCOCC4)cc(-n4ccc(-c5cccc(C)c5)n4)nc3[nH]2)CC1` [Ex. 302] the value was 52 to 100%.

For `Cc1cccc(-c2ccn(-c3cc(N4CCOCC4)c4nc(CN5CCC(C(N)=O)CC5)[nH]c4n3)n2)c1` [Ex. 303], the inhibition at 0.001 µM lay within 52 to 100%.
